“Also recorded” adds a separate entry of the source. Where two headings read alike, the source gives them in different places.
Assays:
CD81-LEL = biological target: T1, CD81-LEL (Homo sapiens, UniProt P60033); assay: Surface plasmon resonance binding of ligands to immobilized CD81-LEL; details: SPR; for Binding (change in response units): 3 min association; for Dissociation 1 (change in response units) / Dissociation 2 (change in response units): dissociation interval
T1 construct: A recombinant form of the CD81-LEL protein with a GST tag; gift of Dr. Shoshana Levy, Stanford University
T1 sequence (P60033 113-201 limits assumed): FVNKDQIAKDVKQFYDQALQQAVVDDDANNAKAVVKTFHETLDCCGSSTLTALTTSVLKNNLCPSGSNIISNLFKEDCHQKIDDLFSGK
Protocol: SPR analysis was performed using a Biacore T200 workstation (GE Healthcare, NJ, USA). A recombinant form of the CD81-LEL protein with a GST tag (generously provided by Dr. Shoshana Levy, Stanford University) was used to confirm, using an established experimental technique, the binding of several ligands to the protein. Briefly, 10 μM CD81-LEL-GST diluted into 10 mM Na-Acetate buffer pH 4.5 was immobilized for 15 min at a flow speed of 5 μl/min onto a CM5 sensor chip using amine-coupling (EDC-NHS), Approximately 20,000 RU of protein were immobilized on the chip. The ligands were prepared as 600 μM solutions in PBS-0.05% Tween-80 (the running buffer) and they were introduced to the protein using a pre-programmed 3 minute association and 1 minute dissociation interval.
SPR analysis was performed using a Biacore T100 workstation (GE Healthcare, NJ, USA). […] Approximately 20,000 RU of protein were immobilized on the chip. The ligands were prepared as 200 uM solutions in PBS-1% DMSO (the running buffer) and they were introduced to the protein using a pre-programmed 3 min association and 1 min dissociation interval.

[1] = biological target: T2, native CD81 on Raji cells (Homo sapiens, UniProt P60033); assay: Antibody neutralizing assay: inhibition of JS-81 anti-CD81 antibody binding on Raji cells (FACS); type: cell-based; details: for inhibition at 50 µM / inhibition at 100 µM / inhibition at 400 µM: read-out: Inhibition of JS-81 Binding (%)
T2 construct: endogenous in cells; host or cells: Raji cells (human B cell line)
T2 sequence (P60033 1-236): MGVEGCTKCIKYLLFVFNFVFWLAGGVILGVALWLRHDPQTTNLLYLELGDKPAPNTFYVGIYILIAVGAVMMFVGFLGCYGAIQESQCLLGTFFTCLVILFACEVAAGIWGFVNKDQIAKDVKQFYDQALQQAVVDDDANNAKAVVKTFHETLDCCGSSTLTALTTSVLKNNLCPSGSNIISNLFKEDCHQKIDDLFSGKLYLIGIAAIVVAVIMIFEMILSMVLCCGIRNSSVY
Protocol: For antibody neutralization assay Raji cells were used, a human B cell line that expressed high amounts of CD81 on the surface (data not shown), Cells were grown in RPMI medium (10% FCS, 1% penicillin/streptomycin, 1% L-glutamine, 1% non-essential amino acids, 1% sodium pyruvate, pH 7.4, at 37° C. with 5% CO2). 2×10^5 cells were incubated with or without different concentrations (50 μM, 100 μM, 400 μM and 1 mM) of indicated inhibitor for 20 min at room temperature, subsequently 1 ul (16 ng/μl) of FITC-labeled anti CD81 antibody (BD Pharmingen, 551108) was added to the cells and incubated for 20 min (antibody titration was performed to obtain a working dilution range, data not shown). Cells were washed and analyzed by FACS (BD FACSCalibur, software: Cell Quest Pro). Mean Fluorescence Intensity MFI was calculated using Flowjo software (TreesStar, www.flowjo.com).

Plasmodium yoelii [2] = assay: Sporozoite development assay, P. yoelii in HepG2-CD81 cells; type: cell-based
Protocol: (§1) Anopheles stephensi mosquitoes were fed on mice infected with Plasmodium yoelii 17XNL parasites. On day 14 post bloodmeal, salivary glands were harvested, homogenized, sporozoite number was determined using a hemocytometer and the indicated number of sporozoites was added to cell monolayers, Plasmodium falciparum sporozoites were generated by membrane feeding An. stephensi mosquitoes using gametocyte cultures generated in vitro.
(§2) HepG2-CD81 (14) cells were maintained in DMEM supplemented with 10% fetal calf serum and 1 mM glutamine (DMEM/FCS), mAb 2E6 was used for development assays and is directed against Plasmodium Hsp 70 (15) and mAb 2A10 is directed against the repeat region of P. falciparum CSP and was used for invasion assays.
(§3) 5×10^5 HepG2-CD81 cells were plated on collagen coated Lab-Tek wells and allowed to adhere overnight. The following day, cells were preincubated with 400 uM of compound for 30 minutes at 37° C. Controls were pre-incubated with DMSO at the same concentration in which it was found in the compound solutions. 10^5 sporozoites were added to each well and in the case of P. falciparum, incubated for 1.5 hours and scored for invasion whereas in the case of P. yoelii, incubated for 44 hours and scored for exoerythrocytic stages.

Plasmodium yoelii [3] = assay: Sporozoite infection assay, P. yoelii in Hepa1-6 cells; type: cell-based
Plasmodium falciparum = assay: Sporozoite invasion assay, P. falciparum in HepG2-CD81 cells; type: cell-based; details: HepG2-CD81, Plasmodium falciparum, 400 uM compound
Protocol: as §1, §2, §3

Plasmodium berghei = assay: Sporozoite infection assay, P. berghei in Hepa1-6 cells; type: cell-based

Binding (change in response units) (CD81-LEL) [response units] | Dissociation 1 (change in response units) (CD81-LEL) [response units] | Dissociation 2 (change in response units) (CD81-LEL) [response units] | Inhibition of JS-81 Binding (%) ([1]; 50 μM ligand, Raji cells) | Inhibition of JS-81 Binding (%) ([1]; 100 μM ligand, Raji cells) | Inhibition of JS-81 Binding (%) ([1]; 400 μM ligand, Raji cells) | Structure (SMILES) | also measured
– | – | – | 0 | 0 | 24 | CC(=NO)C1CC(CC(=O)O)C1(C)C (centres unmarked) [Ligand 127947] | –
– | – | – | 0 | 0 | 19 | O=C(O)c1cc(O)ccc1N=Nc1ccccc1 [Ligand 106863] | –
– | – | – | 0 | 12 | 26 | NC(=O)NC(=O)c1nccnc1C(=O)O [Ligand 117922] | –

Continued, molecule first:

Structure (SMILES) | Binding (change in response units) (CD81-LEL) [response units] | Dissociation 1 (change in response units) (CD81-LEL) [response units] | Dissociation 2 (change in response units) (CD81-LEL) [response units] | Inhibition of JS-81 Binding (%) ([1]; 50 μM ligand, Raji cells) | Inhibition of JS-81 Binding (%) ([1]; 100 μM ligand, Raji cells) | Inhibition of JS-81 Binding (%) ([1]; 400 μM ligand, Raji cells) | also measured
CC(C)=CCC1=C(OCC(=O)O)C(=O)c2ccccc2C1=O [Ligand 98026, 2-[3-(3-methylbut-2-enyl)-1,4-dioxonaphthalen-2-yl]oxyacetate] | 36.6 | 35.9 | 28.1 | – | – | – | inhibition at 50 µM ([1]; 50 μM ligand, Raji cells): 0%; inhibition at 100 µM ([1]; 100 μM ligand, Raji cells): 0%; inhibition at 400 µM ([1]; 400 μM ligand, Raji cells): 21%
NC(N)=N/N=C\c1c(Cl)cccc1Cl [Ligand 68982] | – | – | – | 0 | 13 | 15 | –
Cc1ccc(-c2cc(C(=O)O)c3ccccc3n2)c(C)c1 [Ligand 25678] | – | – | – | 0 | 4 | 19 | –
CC(C)(C)c1ccc(NS(=O)(=O)c2ccc(N)cc2)cc1 [Ligand 7436] | – | – | – | 0 | 12 | 11 | –
O=C(O)Cn1ccc2ccccc21 [Ligand 75866, 2-indol-1-ylacetate] | 14.3 | 18.9 | 11.3 | – | – | – | Percent Infection (Plasmodium yoelii [2]; HepG2-CD81, Plasmodium yoelii, 400 uM compound): 42.6%; effect on infection (in words) (Plasmodium yoelii [2]; P. yoelii, HepG2-CD81): inhibit; also recorded: inhibitory effect; Percent Infection (Plasmodium yoelii [3]; Hepa1-6 Cells, Plasmodium yoelii): 122%; effect on infection (in words) (Plasmodium yoelii [3]; P. yoelii, Hepa1-6 cells): didn't inhibit; Percent Infection (Plasmodium falciparum): 84.2%; Percent Infection (Plasmodium berghei; Hepa1-6 Cells, Plasmodium berghei): 135%; effect on infection (in words) (Plasmodium berghei; P. berghei, Hepa1-6 cells): didn't inhibit
c1cncc(C2CCCC[NH2+]2)c1 (stereo in doubt) [Ligand 87504, 3-[(2S)-piperidin-2-yl]pyridine] | 72 | 57.9 | 42.6 | – | – | – | binding-dissociation behavior (in words) (CD81-LEL): best binding and dissociation; also recorded: most desirable binding-dissociation behavior; also recorded: best binding-dissociation behavior; inhibition at 50 µM ([1]; Raji): 0%; inhibition at 100 µM ([1]; Raji): 6%; inhibition at 400 µM ([1]; Raji): 20%
